Holding throughout (assay type): cell-based, human
Assay [1] concerns FBXL2 and IP3R3. The assay is described as follows: FBXL2-IP3R3 co-immunoprecipitation after ATP stimulation. Particulars: ATP for 30 min; particularly upon proteasome inhibition. The protocol: FIGS. 8A, 8B, 8C, 8D, 8E, 8F, 8G, 8H, 8I, and 8J show Mapping of the FBXL2-binding domain in IP3R3, and evidence that the N-terminal suppressor domain inhibits the IP3R3-FBXL2 interaction. […] Binding of IP3R3 to FBXL2 is indicated with the symbol (+). […] Whole-cell lysates (WCL) were immunoprecipitated (IP) with anti-Flag resin and proteins were immunoblotted as indicated. This experiment was performed twice. […] Sixteen hours after transfection, cells were incubated with MG132 for 3 h before stimulation with ATP for 30 min Whole-cell lysates were immunoprecipitated (IP) with an anti-HA resin and proteins were immunoblotted as indicated. This experiment was performed twice. […] Cells were subsequently treated with or without ATP for 30 min Whole-cell lysates were immunoprecipitated (IP) with an anti-Flag resin and proteins were immunoblotted as indicated. […] P values were calculated by one-way ANOVA and multiple-comparisons test. Error bars indicate s.e.m. […] It has been shown that removal of the N-terminal suppressor domain (amino acids 1-226) increases the binding of IP3 to the IP3 binding core domain (amino acids 227-579), and IP3 binding evokes conformational changes that open the suppressor domain29-32. These conformational changes may allow FBXL2 to access the degron of IP3R3 (that is, the amino acid region required for binding to FBXL2). […]

Assay [2] has as its system IP3R3. The assay is described as follows: IP3R3 degradation in serum-starved and exponentially growing NHFs treated with ATP. Particulars: NHFs cultured in presence or absence of serum.
Assay [3] deals with IP3R3. The assay is described as follows: Serum-mediated degradation of IP3R3 in serum-starved, serum re-stimulated NHFs (immunoblotting). Particulars: NHFs serum-starved 72 h, re-stimulated with serum; 10 μM MG132, 10 μM Eer1. The protocol:
24 h post-transfection, cells were treated with MG132 for 3 h before harvesting for immunoprecipitation and immunoblotting as indicated. WCL, whole-cell lysate from untransfected cells. […] After harvesting, cells were lysed, and cell membranes (CM) were isolated and immunoprecipitated with either a normal mouse IgG or an anti-Flag antibody. Subsequently, immunoprecipitates were analysed by immunoblotting as indicated. The results of these experiments (n=2) indicate that FBXL2 is incorporated into a complete SCF ligase that binds its substrate(s) at cellular membranes. […] After harvesting, cells were lysed and cytoplasmic (CYTO) and cell membrane (CM) fractions were isolated and analysed by immunoblotting as indicated. Actin and calnexin are used as markers for cytoplasmic and cell membrane fractions, respectively. This experiment was performed twice. […] 24 h post-transfection, where indicated, cells were treated with MG132 for 3 h before harvesting for immunoprecipitation and immunoblotting. Ned. CUL1, neddylated CUL1. […] The experiment was performed in the presence or absence of MG132 as indicated. Whole-cell lysates were immunoblotted as indicated. The asterisk indicates a non-specific band. This experiment was performed twice. […] P values were calculated by unpaired t-test. Error bars indicate s.e.m. […] Error bars indicate s.e.m. The values represent the ratios between FBXL2 and GAPDH mRNAs. […] Cells were subsequently stimulated with medium containing serum and harvested at the indicated times for immunoblotting. […] Error bars indicate s.e.m. […] Cells were subsequently stimulated with medium containing serum and harvested at the indicated time points for immunoblotting. […] Error bars indicate s.e.m. […] Exon 2 and exon 3 refer to the human FBXL2 gene in NC_000003.12 (GRCh38.p7 (Gene Bank ID: 3129728)). […]
FIGS. 6A, 6B, 6C, 6D, 6E, 6F, 6G, and 6H that the degradation of IP3R3 is dependent on FBXL2 localization to cell membranes and on the segregase activity of p97. […] Samples were analysed by immunoblotting with the indicated antibodies. […]

Assay [4] deals with NHFs. The experiment in a line: H2O2-induced apoptosis in NHFs transfected with FBXL2 siRNA (automated nuclei count). Particulars: pre-treated for 30 min with cyclosporin A (1 μM), H2O2 16 h. The protocol: FIGS. 1A, 1B, 1C, 1D, 1E, 1F, 1G, and 1H show FBXL2-mediated degradation of IP3R3 controls Ca2+ flux and sensitivity to apoptosis. […] Left, two representative traces. Right, quantification of three independent experiments. P values were calculated by one-way ANOVA and multiple-comparisons test. Error bars indicate s.e.m. 1b, 1c, and 1d, Apoptosis evaluated after treatment with H2O2 using automated nuclei count analysis of twenty randomly chosen fields following a 16 h treatment (1b), immunoblot detection of cleaved PARP and cleaved caspase-3 following a 3 h treatment (1c), and automated analysis of cells with released cytochrome c (Cyt c) from 80 randomly chosen fields following a 3 h treatment (1d). […] P values were calculated by one-way ANOVA and multiple-comparisons test. […] Left, representative traces show concentrations of cytosolic Ca2+ measured with aequorin. Right, quantification of three independent experiments. P values were calculated by one-way ANOVA and multiple-comparisons test. […] Apoptosis shown in 1h was evaluated as in 1b, except that H2O2 treatment was for 5 h. Analysis of cytochrome c release shown in 1i was evaluated as in 1d. P values were calculated by unpaired t-test. […]
Detection of cell death in cell systems. […] The mean fluorescence intensities and standard deviations of […] cytochrome c were evaluated in comparison to corresponding controls. […]

The record followed here is patent US11583525B2, “Geranylgeranyltransferase I inhibitor for treatment of a PTEN defective cancer” (H. LEE MOFFITT CANCER CENTER AND RESEARCH INSTITUTE, INC., priority 2017, dated 2023).

Regarding `Nc1ncnc2c1ncn2[C@@H]1O[C@H](COP(=O)(O)OP(=O)(O)OP(=O)(O)O)[C@@H](O)[C@H]1O` [ATP], the “binding between FBXL2 and IP3R3” value in assay [1] was “increased the binding between FBXL2 and IP3R3”. In addition, the “degradation of IP3R3” value in assay [2] is recorded as “promoted the degradation of IP3R3 in cells cultured in the presence, but not in the absence, of serum”.

Consider `CC1(C)C(N(O)C(=O)Nc2ccc(Cl)cc2)N(c2ccc(Cl)cc2)C(=O)N1CC(=O)N/N=C/C=C/c1ccc([N+](=O)[O-])o1` (centres unmarked) [Eer1, Eeyarestatin 1], for which the “IP3R3 levels / degradation after serum re-stimulation” value in assay [3] is on record as “blocked IP3R3 degradation”.

Turning to `CC(=O)N[C@@H](CSC(=O)[C@]1([C@@H](O)C(C)C)NC(=O)[C@H](C)[C@@H]1O)C(=O)O` [lactacystin], the “IP3R3 levels / degradation after serum re-stimulation” value in assay [3] is reported as “much less”.

With cyclosporin-A, the “sensitization to H2O2 by FBXL2 silencing” value in assay [4] is “abolished the sensitization to H2O2 by FBXL2 silencing”.
